Experimental data from PMC7247329, “Kaempferol and Its Glycoside, Kaempferol 7-O-rhamnoside, Inhibit PD-1/PD-L1 Interaction In Vitro” (International Journal of Molecular Sciences, 2020).
Values joined by “and” are separate entries in the source; they are usually repeats but may differ in a detail not shown here. Equal entries are not always repeated.

Experiments:
hPD-L1 = test system: hPD-L1; set-up: method as in PMID 31455818, PMID 31374878; settings: biochemical results; cited from earlier work
PD-L1/aAPC CHO-K1 cells = assay: Cell Counting Kit-8 (CCK) cell viability assay; assay type: cell-based; settings: 24 h
[1] = test system: PD-1/PD-L1 interaction in co-cultured PD-1 Jurkat T cells and PD-L1/aAPC CHO-K1 cells; assay: Cell-based PD-1/PD-L1 blockade bioassay (NFAT-luciferase reporter, co-culture); set-up: species or system human; settings: co-culture 24 h; for EC50: Homo sapiens
Text: When co-cultured with PD-1 Jurkat T cells and PD-L1/aAPC CHO-K1 cells, TCR activation is restrained by PD-1/PD-L1 ligation and the NFAT-luciferase reporter activity. When PD-1/PD-L1 interaction is disrupted, TCR activation induces luminescence via activation of the NFAT pathway in co-culture systems. Therefore, the effects of KO and its glycosides on PD-1/PD-L1 interaction in the cell model system were examined by measuring NFAT-luciferase reporter activity after co-culture with PD-1/NFAT Reporter-Jurkat cells and PD-L1/aAPC CHO-K1 cells. […] The results described above indicate that KO and its glycosides are involved with the PD-1/PD-L1 blockade, as confirmed by the biochemical assay.
A PD-1/PD-L1 Blockade Bioassay kit was used according to the supplier’s instructions (Promega, Fitchburg, WI, USA) with a slight modification. Briefly, the PD-L1 aAPC/CHO-K1 cells were seeded in 96-well plates at a density of 5 × 10^4/well in the complete culture medium. A few hours later, the medium was removed, and 1 × 10^5 PD-1 Jurkat cells were added to each well with test inhibitors. The cells were cultured for 24 h at 37 °C and then lysed using the Bio-Glo™ Luciferase Assay System (Promega, Madison, WI, USA). After incubation for 15 min, luminescence was quantified using a GloMax® Explorer Multimode Microplate Reader (Promega). Data are presented as fold to untreated control.

PD-1 Jurkat cells = assay: Cell Counting Kit-8 (CCK) cell viability assay; assay type: cell-based, human; settings: 24 h
[2] = target: T1, PD-1/PD-L1 protein–protein interaction (Homo sapiens, UniProt Q9NZQ7); assay: PD-1/PD-L1 competitive ELISA; assay type: binding
T1 construct: purchased BPS Bioscience #71104 (hPD-L1); #71109 (biotinylated hPD-1); kit #72005
Experimental: To elucidate the effect of test inhibitors on PD-1/PD-L1 protein–protein interaction, PD-1/PD-L1 Competitive ELISA Screening Kits (BPS Bioscience Inc., San Diego, CA, USA) were used according to the supplier’s instructions [27]. Briefly, recombinant hPD-L1 (BPS Bioscience, #71104) was coated overnight at 1 μg/mL in phosphate-buffered saline (PBS) in 96-well plates (Corning Inc., New York, NY, USA). Plates were washed with PBS containing 0.1% Tween (PBS-T), blocked for 1 h at room temperature with PBS containing 2% (w/v) BSA, and then washed again. Fifty microliters of 0.5 μg/mL biotinylated hPD-1 (BPS Bioscience, #71109) was added to the wells, and the plates were incubated for 2 h at room temperature. After three washes in PBS-T, 50 μL of 0.2 μg/mL HRP-conjugated streptavidin was added to each well, and the plates were incubated for 1h. After incubation, plates were washed three times in 0.1% PBS-T, and relative chemiluminescence was measured on a SpectraMax L Luminometer from Molecular Devices (San Jose, CA, USA).

[3] = reported; no reference given; cited from earlier work
[4] = test system: PD-1 level in co-cultured PD-1 Jurkat cells and PD-L1 CHO-K1 cells; assay: Western blot of PD-1 expression in co-cultured cells; assay type: cell-based, human; settings: 24 h
recombinant PD-1 (hPD-1) = recombinant PD-1 (hPD-1) (Homo sapiens, UniProt Q15116); assay: Surface plasmon resonance (Biacore T200); assay type: binding; settings: SPR
biotinylated human PD-L1 = target: T2, biotinylated human PD-L1 (Homo sapiens, UniProt Q9NZQ7); assay: Biolayer interferometry (BLItz) kinetic analysis; assay type: binding
T2 construct: purchased Sino Biological
Experimental: (§1) To measure the binding affinities and kinetic constants of test inhibitors, BLI analysis was conducted according to a previous report, with slight modifications. Briefly, BLI on a BLItz system is a label-free analytic technology for biomolecular interactions by measuring interference patterns of light reflected from two surfaces. After pre-equilibration of the SA BLI sensor (Pall FortéBio Corp., Menlo Park, CA, USA) in PBS buffer for 10 min, biotinylated human PD-1 (BioVision, Milpitas, CA, USA) and PD-L1 (Sino biological, Beijing, China) were fully loaded onto the sensors by immersion in 4 μL of PD-1 and PD-L1 solution and then dissolved in PBS buffer to 50 μg/mL. Test inhibitors for the kinetic analysis were prepared by 100-fold dilution of stock solution and dissolved in 100% DMSO (0, 0.25, 0.5, and 0.75 mM) in PBS buffer. Binding kinetics were measured as follows: step 1, initial baseline in PBS buffer containing 1% DMSO for 15 s; step 2, association in 4 μL of test inhibitors solution for 20 s; and step 3, dissociation in PBS buffer containing 1% DMSO for 20 s. The kinetic constants were calculated using the BLItz Pro software by fitting the association and dissociation data to a 1:1 model. The equilibrium dissociation constant, KD, was calculated as the dissociation constant (kd)/association constant (ka).

biotinylated human PD-1 = target: T3, biotinylated human PD-1 (Homo sapiens, UniProt Q15116); assay: Biolayer interferometry (BLItz) kinetic analysis; assay type: binding
T3 construct: purchased BioVision
Experimental: as §1

T2 sequence (Q9NZQ7 19-290): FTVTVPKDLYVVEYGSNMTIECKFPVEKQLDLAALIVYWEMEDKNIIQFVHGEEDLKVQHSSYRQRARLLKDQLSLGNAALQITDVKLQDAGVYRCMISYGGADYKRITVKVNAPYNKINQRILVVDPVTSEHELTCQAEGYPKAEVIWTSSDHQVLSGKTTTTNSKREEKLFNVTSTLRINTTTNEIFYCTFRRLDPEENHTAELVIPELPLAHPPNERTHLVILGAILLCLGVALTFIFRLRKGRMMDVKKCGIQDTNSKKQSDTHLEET
T3 sequence (Q15116 25-288): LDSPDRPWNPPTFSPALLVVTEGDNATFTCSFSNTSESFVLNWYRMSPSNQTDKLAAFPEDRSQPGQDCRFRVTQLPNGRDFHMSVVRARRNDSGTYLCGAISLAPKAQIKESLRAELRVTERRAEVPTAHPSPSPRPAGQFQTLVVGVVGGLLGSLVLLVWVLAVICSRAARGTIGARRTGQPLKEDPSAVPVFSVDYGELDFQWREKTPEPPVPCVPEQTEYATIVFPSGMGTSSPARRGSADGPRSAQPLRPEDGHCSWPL
Chain of recombinant PD-1 (hPD-1) (Q15116 25-170 limits assumed): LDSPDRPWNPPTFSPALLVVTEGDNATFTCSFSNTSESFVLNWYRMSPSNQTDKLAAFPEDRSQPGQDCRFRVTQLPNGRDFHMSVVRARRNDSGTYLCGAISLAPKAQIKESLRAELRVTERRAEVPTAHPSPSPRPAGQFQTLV
T1 sequence (Q9NZQ7 19-239 limits assumed): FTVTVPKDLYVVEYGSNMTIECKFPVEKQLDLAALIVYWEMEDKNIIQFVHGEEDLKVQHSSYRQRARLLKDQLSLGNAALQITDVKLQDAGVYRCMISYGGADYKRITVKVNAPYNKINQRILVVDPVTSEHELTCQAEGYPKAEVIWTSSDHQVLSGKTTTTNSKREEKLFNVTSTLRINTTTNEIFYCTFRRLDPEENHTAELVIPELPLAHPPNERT

| Structure (SMILES) | Direct targeting of hPD-L1 (hPD-L1) | Cytotoxic concentration (not cytotoxic up to) (PD-L1/aAPC CHO-K1 cells) [µM] | Effect on PD-1/PD-L1 interaction in cell model ([1]; indicated concentration) | Cytotoxic concentration (not cytotoxic up to) (PD-1 Jurkat cells) [µM] | IC50 ([2]; PD-L1-coated plate, biotinylated PD-1, read-out: IC50, PD-1/PD-L1 blocking effect) [µM] | Solubility in water [3] | Effect on PD-1 level [4] | EC50 [1] [µM] | Inhibitory effect on PD-1/PD-L1 binding [2] | Kd (recombinant PD-1 (hPD-1); Biacore T200, recombinant PD-1) [µM] | Rmax (recombinant PD-1 (hPD-1); Biacore software) | kd (biotinylated human PD-L1; PD-L1) [s⁻¹] | kon (biotinylated human PD-L1; PD-L1, read-out: ka) [M⁻¹ s⁻¹] | Kd (biotinylated human PD-L1; PD-L1 immobilized on SA sensor, PBS pH 7.3 with 1% DMSO, 1:1 model) [µM] | kd (biotinylated human PD-1; PD-1) [s⁻¹] | kon (biotinylated human PD-1; PD-1, read-out: ka) [M⁻¹ s⁻¹] | Kd (biotinylated human PD-1; PD-1 immobilized on SA sensor, PBS pH 7.3 with 1% DMSO, 1:1 model) [µM] |
| --- | --- | --- | --- | --- | --- | --- | --- | --- | --- | --- | --- | --- | --- | --- | --- | --- | --- |
| C[C@@H](O)[C@H](NC(=O)N[C@@H](CC(N)=O)c1nc([C@@H](N)CO)no1)C(=O)O [CA-170] | did not target hPD-L1 directly |  |  |  |  |  |  |  |  |  |  |  |  |  |  |  |  |
| C[C@@H]1O[C@@H](Oc2cc(O)c3c(=O)c(O[C@@H]4O[C@@H](C)[C@H](O)[C@@H](O)[C@H]4O)c(-c4ccc(O)cc4)oc3c2)[C@H](O)[C@H](O)[C@H]1O [KI, kaempferol-3,7-dirhamnoside] |  | > 100 | no effect at the indicated concentration | > 100 |  |  |  |  |  |  |  |  |  |  |  |  |  |
| O=c1c(O)c(-c2ccc(O)cc2)oc2cc(O)cc(O)c12 [KO, kaempferol] |  | > 100 |  | > 100 | 7.8 | 440 mg/L and 1.537 mM | not upregulation of PD-1 level | 16.5 |  |  |  |  |  |  |  |  |  |
| C[C@@H]1O[C@@H](Oc2cc(O)c3c(=O)c(O)c(-c4ccc(O)cc4)oc3c2)[C@H](O)[C@H](O)[C@H]1O [KR, kaempferol 7-O-rhamnoside] |  | > 100 |  | > 100 |  | 1.16 mg/mL and 2.68 mM | not upregulation of PD-1 level | 15.4 | revealed inhibitory effects on PD-1/PD-L1 binding but did not show dose-dependent activities | 156 | 24.92 | 0.00773 | 392 | 19.7 | 0.00979 | 315 | 31.1 |
